Results taken from article PMC12333026, “Versatile Imidazole Scaffold with Potent Activity against Multiple Apicomplexan Parasites” (ACS Infectious Diseases, 2025).
pEC50, pIC50: −log10 of the molar value. Where two headings read alike, the source gives them in different places.

Columns and labels:
[1] = target: PfPKG (Plasmodium falciparum, UniProt Q8I719); test: PfPKG enzyme activity assay, recombinant WT; format: biochemical; conditions: recombinant enzyme; ADP-Glo assay; mean ± SD, n = 2–3 experiments; read-out: enzyme IC50 (±SD) PfPKG WT
Procedure: (§1) Direct inhibition of recombinant PfPKG phosphorylation activity was carried out using a previously described nonradioactive assay. The assay evaluates PfPKG activity based on changes in initial ATP concentration via luminescence after enzyme phosphorylation of peptide substrate PKCtide ([…]) (SignalChem, Richmond, BC Canada). Enzyme kinase activity was measured in the presence of 26 μM PKCtide; 50.1 nM PfPKG; and 20 μM cGMP in a buffered solution containing 20 mM β-glycerol-phosphate, 20 mM MgCl2, 25 mM HEPES pH 7.5 (KOH), 0.1% BSA and 2 mM DTT. The reaction was activated by the addition of 10 μM ATP with incubation at 30 °C and 90 rpm agitation for 120 min. […] Each assay plate contained reaction wells with no enzyme, no PKCtide peptide substrate and no cGMP as internal controls.

[2] = target: PfPKG T618Q (Plasmodium falciparum, UniProt Q8I719, T618Q); test: PfPKG enzyme activity assay, T618Q gatekeeper mutant; format: biochemical, P. falciparum
Procedure: as §1

[3] = target: T1, PfCDPK1 (Plasmodium falciparum, UniProt P62344); test: CDPK enzyme activity assay, PfCDPK1; format: biochemical, P. falciparum
T1 construct: made in house
Procedure: (§2) Recombinant expression of PfCDPK1, PfCDPK4, TgCDPK1 WT, TgCDPK1-G128M, CpCDPK1 and CpCDPK1-G152 M were purified as previously described. […] These reactions were performed in a buffer composed of 1 mM EGTA (pH 7.2), 10 mM MgCl2, 20 mM HEPES pH 7.5 (KOH), 0.1% BSA. The reactions were initiated with addition of 10 μM ATP and 2 mM CaCl2 as enzyme activation reagent. Reaction plates were incubated for 90 min with 90 rpm agitation at 30 °C. […] KinaseGlo (Promega) luminescence-based assay in which luminescence is inversely related to kinase activity and […] was used as previously described.

[4] = target: T2, PfCDPK4 (Plasmodium falciparum, UniProt Q8IBS5); test: CDPK enzyme activity assay, PfCDPK4; format: biochemical, P. falciparum
T2 construct: made in house
Procedure: as §2

[5] = system: P. falciparum 3D7 (WT) asexual stage parasites; test: Growth inhibition assay, asexual stage parasites, WT 3D7; format: cell-based; conditions: Plasmodium falciparum; 3D7 asexual stage parasites, 72 h; mean ± SD, n = 1–2
Procedure: (§3) lines were maintained with O+ human erythrocytes (BioIVT). WT 3D7A10 and T618Q parasites were kind gifts from Dr. David Fidock (Columbia University) and Dr. David Baker (London School of Tropical Medicine and Hygiene), respectively. Growth inhibition assays were performed as previously described. Parasites were grown in RPMI 1640 medium (Sigma-Aldrich, St. Louis, MO, U.S.A.) supplemented with 5 mg/mL Albumax (Gibco), 50 μg/mL hypoxanthine (Sigma-Aldrich), 2 mg/mL Na2CO3 (Sigma-Aldrich), 25 mM HEPES, and 50 μg/mL gentamicin (Gibco). The growth assay was initiated with cultures with >80% ring stage parasites, diluted to a parasitemia of 0.4% and a hematocrit of 1%. Parasites were transferred to a 96-well plate with test compounds, vehicle, or DHA as positive control, and maintained for 72 h in 5% CO2, 5% O2, and 90% N2 in a humidified chamber. Parasite viability at 72 h was determined by addition of SYBR Green I nucleic acid stain (Thermo Fisher Scientific, S7563) and Mitotracker Deep Red (Fisher M422426) followed by flow cytometry on a BD FACSVerse using BD FACSuite software. Data acquired were analyzed using Flowjo software. EC50 values were derived by nonlinear regression in Graph Pad Prism 7.

[6] = system: P. falciparum T618Q asexual stage parasites; test: Growth inhibition assay, asexual stage parasites expressing PfPKG T618Q; format: cell-based; conditions: Plasmodium falciparum, 72 h, read-out: P. falciparum EC50 (±SD) T618Q
Procedure: as §3

[7] = target: T3, TgCDPK1 WT (Toxoplasma gondii, UniProt Q9BJF5); test: biochemical
T3 sequence (Q9BJF5 1-507): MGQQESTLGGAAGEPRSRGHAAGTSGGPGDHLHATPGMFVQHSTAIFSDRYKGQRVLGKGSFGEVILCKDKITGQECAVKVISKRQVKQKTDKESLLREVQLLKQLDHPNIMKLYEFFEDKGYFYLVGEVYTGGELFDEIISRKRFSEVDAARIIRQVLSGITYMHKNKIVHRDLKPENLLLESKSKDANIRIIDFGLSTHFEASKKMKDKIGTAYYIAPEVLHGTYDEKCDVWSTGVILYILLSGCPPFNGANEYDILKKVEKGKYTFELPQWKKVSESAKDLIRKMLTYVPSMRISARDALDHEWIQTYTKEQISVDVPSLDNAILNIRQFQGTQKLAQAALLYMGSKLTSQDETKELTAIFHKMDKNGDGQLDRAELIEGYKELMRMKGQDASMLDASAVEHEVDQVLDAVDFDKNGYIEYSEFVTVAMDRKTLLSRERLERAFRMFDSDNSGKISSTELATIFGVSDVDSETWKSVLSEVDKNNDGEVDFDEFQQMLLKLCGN
Procedure: as §2

[8] = target: T4, TgCDPK1-G128M (Toxoplasma gondii, UniProt Q9BJF5, G128M); test: CDPK enzyme activity assay, TgCDPK1 G128M; format: biochemical, T. gondii
T4 construct: made in house
Procedure: as §2

[9] = target: T5, CpCDPK1 (Cryptosporidium parvum, UniProt A3FQ16); test: CDPK enzyme activity assay, CpCDPK1 WT; format: biochemical, C. parvum
T5 construct: made in house
Procedure: as §2

[10] = target: T6, CpCDPK1-G152M (Cryptosporidium parvum, UniProt A3FQ16, G152M); test: CDPK enzyme activity assay, CpCDPK1 G152M; format: biochemical, C. parvum
T6 construct: made in house
Procedure: as §2

[11] = system: strain UGA1 expressing nanoluciferase, replication in HCT-8 cells; test: Growth inhibition assay in HCT-8 cells (nanoluciferase strain UGA1); format: cell-based, C. parvum; conditions: Cryptosporidium parvum, 48 h, nanoluciferase readout, (±SD), read-out: EC50 of replication measured in HCT-8 cells
Procedure: strain UGA1 transfected to express nanoluciferase (Nluc) and obtained from the University of Arizona after propagation in newborn calves. HCT-8 cells were added to a 384-well plate and allowed to grow for 48 h to reach 75–90% confluence. The medium was removed, and test compounds were added in serial dilutions prior to the addition of 1000 oocysts per well in RPMI 1640 medium supplemented with 10% heat inactivated FBS and 1% penicillin streptomycin. Plates were incubated for 48 h; Nano-Glo luciferase reagent (Promega, Madison, WI) was then added, and the plates were read on an EnVision multilabel plate reader (PerkinElmer, Waltham, MA). EC50 curves were calculated as previously described using Prism v6.07 (GraphPad Software, La Jolla, CA).

[12] = system: T. gondii tachyzoites, parental control; test: Proliferation EC50, host fibroblast nuclei count, parental control; format: cell-based; conditions: Toxoplasma gondii
Procedure: (§4) Human Foreskin Fibroblasts (HFF) were cultured in DMEM, with D-glucose (4.5 g/L), L-glutamine, and sodium pyruvate (110 mg/L) (Gibco) that were further supplemented with 10% Fetal Clone 1 serum (FCS)(HyClone), 50 U/mL penicillin (Gibco), […] streptomycin (Gibco), and 1× GlutaMax (Gibco). HFF cells were cultured in T25 flasks (Corning) in a humidified incubator at 37 °C and 5% CO2. For culture, media was replaced with DMEM, as described above, with 1% FCS. Mutant strains were created as described in.
(§5) Presence of desired mutations in parasite lines, TgCDPK1^G128M, TgCDPK1^G128M + TgMAPKL1^L162Q and […] was verified through sequencing. Compounds were dissolved in DMSO and serially diluted 4-fold across the first 10 wells of a 96 well plate, with the highest drug concentration in the first column being 25 μM. The strain of was then added to the first 11 columns of the 96-well plate at a density of 4000 parasites per well. The 11th column contained no compounds, and the 12th column contained no parasites and no compound. After 5 days of incubation at 37 °C and 5% CO2, cells were washed with PBS and fixed with 4% PFA in PBS (Thermo Fisher Scientific, Waltham, MA, USA). After fixing, cells were washed three times with PBS and stained with 300 nM DAPI in PBS before being washed again three times with PBS.
(§6) Images were acquired in an ImageXpress Pico Automated Cell Imaging System (Molecular Devices, San Jose, CA, USA) with a 4× objective using UV fluorescence. Following imaging, ImageXpress software was used to count objects with a fluorescence intensity ≥8 and a size of 12–30 μm, giving a total count of host cell nuclei for each well. EC50 were determined based on the number of remaining fibroblast nuclei using a nonlinear regression analysis with GraphPad Prism software version 10.0.0 for Windows, GraphPad Software, Boston, Massachusetts USA. Each compound was tested in ≥3 experiments in quadruplicate rows.

[13] = system: T. gondii tachyzoites expressing TgPKG T761Q; test: Proliferation EC50, host fibroblast nuclei count, TgPKG T761Q mutant; format: cell-based
Procedure: as §4, §5, §6

[14] = system: T. gondii tachyzoites expressing TgCDPK1 G128M; test: Proliferation EC50, host fibroblast nuclei count, TgCDPK1 G128M mutant; format: cell-based
Procedure: as §4, §5, §6

[15] = system: T. gondii tachyzoites expressing TgCDPK1 G128M; TgMAPKL-1 L162Q; test: Proliferation EC50, host fibroblast nuclei count, double mutant; format: cell-based; conditions: Toxoplasma gondii, Fibroblast, read-out: T. gondii EC50 (±SD) CDPK1 G128M; MAPKL1 L162Q
Procedure: as §4, §5, §6

[16] = system: T. gondii RH strain expressing β-galactosidase, parental; test: Proliferation EC50, β-galactosidase readout, parental strain; format: cell-based; conditions: Toxoplasma gondii, 72 h, read-out: T. gondii EC50 (±SD) CONTROL
[17] = system: T. gondii RH strain with L162Q substitution in TgMAPKL1; test: Proliferation EC50, β-galactosidase readout, TgMAPKL1 L162Q; format: cell-based
Procedure: as §4
An RH strain of with an L162Q substitution in TgMAPKL1 introduced by CRISPR/Cas9 site directed mutagenesis into a clone expressing β-galactosidase was used to determine the EC50s for proliferation. Compounds were dissolved in DMSO and serially diluted 4-fold across the first 11 columns of a 96 well plate from the highest concentration of 25 μM leaving the final column with no drugs. was added to the first 11 columns of the 96 well plate at 4000 parasites per well. The last column contained no compound. Plates were incubated 72 h at 37 °C and 5% CO2. were quantified by spectrophotometrically measuring the β-galactosidase concentration of each well after cell lysis and exposure to chlorophenol red β-galactopyranose (Sigma-Aldrich, St. Louis, MO) substrate. Each compound was tested at least three times in quadruplicate.

T6 sequence (A3FQ16 whole entry G152M): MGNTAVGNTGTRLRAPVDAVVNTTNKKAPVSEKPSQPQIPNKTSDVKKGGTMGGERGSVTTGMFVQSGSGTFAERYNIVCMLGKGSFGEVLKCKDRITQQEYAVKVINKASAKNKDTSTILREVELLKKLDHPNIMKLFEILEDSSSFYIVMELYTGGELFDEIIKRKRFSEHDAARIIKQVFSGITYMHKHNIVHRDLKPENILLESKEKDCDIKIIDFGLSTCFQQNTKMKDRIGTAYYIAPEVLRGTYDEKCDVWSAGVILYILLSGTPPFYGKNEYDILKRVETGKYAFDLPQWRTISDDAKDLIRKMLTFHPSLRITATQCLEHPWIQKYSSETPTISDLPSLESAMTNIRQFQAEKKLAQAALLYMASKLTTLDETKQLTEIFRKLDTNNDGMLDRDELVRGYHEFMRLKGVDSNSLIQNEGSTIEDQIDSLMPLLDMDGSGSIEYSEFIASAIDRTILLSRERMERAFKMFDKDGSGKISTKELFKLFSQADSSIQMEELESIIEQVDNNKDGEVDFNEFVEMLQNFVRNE
T4 sequence (Q9BJF5 whole entry G128M): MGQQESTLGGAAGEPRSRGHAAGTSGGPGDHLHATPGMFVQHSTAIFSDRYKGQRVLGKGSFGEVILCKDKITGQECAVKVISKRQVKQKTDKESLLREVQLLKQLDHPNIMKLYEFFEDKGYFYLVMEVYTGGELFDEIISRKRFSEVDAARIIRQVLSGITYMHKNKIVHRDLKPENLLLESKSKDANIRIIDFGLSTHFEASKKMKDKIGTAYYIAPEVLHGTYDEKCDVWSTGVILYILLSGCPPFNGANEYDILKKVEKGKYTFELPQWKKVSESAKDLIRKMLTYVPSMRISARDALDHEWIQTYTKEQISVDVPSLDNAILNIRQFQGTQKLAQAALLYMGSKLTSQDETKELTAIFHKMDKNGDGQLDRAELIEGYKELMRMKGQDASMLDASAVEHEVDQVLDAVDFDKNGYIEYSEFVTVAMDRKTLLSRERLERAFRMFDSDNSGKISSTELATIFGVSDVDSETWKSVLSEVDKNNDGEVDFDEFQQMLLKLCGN
Chain of PfPKG T618Q (Q8I719 whole entry T618Q): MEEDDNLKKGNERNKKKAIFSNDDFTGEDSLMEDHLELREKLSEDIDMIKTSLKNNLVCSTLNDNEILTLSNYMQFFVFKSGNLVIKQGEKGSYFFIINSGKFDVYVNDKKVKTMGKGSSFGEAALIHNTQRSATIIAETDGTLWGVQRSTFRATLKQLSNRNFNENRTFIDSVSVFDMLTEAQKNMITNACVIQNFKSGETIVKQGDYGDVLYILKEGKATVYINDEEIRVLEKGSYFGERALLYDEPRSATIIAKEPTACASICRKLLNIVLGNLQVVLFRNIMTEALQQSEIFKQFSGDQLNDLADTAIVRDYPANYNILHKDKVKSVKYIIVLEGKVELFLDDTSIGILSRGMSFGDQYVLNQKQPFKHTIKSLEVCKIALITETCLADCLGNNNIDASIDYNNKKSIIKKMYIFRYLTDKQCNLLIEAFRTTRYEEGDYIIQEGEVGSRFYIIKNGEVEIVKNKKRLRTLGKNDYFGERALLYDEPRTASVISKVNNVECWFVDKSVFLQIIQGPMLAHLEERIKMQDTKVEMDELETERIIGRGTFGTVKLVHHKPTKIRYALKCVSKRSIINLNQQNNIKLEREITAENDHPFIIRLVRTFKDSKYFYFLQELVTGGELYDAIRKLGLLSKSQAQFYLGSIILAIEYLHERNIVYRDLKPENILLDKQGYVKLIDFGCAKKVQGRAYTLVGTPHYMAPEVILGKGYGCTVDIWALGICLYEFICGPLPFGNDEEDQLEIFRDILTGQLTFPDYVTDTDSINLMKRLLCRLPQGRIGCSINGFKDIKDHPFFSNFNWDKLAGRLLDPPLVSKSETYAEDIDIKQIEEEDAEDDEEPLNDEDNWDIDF
Chain of PfPKG (Q8I719 whole entry): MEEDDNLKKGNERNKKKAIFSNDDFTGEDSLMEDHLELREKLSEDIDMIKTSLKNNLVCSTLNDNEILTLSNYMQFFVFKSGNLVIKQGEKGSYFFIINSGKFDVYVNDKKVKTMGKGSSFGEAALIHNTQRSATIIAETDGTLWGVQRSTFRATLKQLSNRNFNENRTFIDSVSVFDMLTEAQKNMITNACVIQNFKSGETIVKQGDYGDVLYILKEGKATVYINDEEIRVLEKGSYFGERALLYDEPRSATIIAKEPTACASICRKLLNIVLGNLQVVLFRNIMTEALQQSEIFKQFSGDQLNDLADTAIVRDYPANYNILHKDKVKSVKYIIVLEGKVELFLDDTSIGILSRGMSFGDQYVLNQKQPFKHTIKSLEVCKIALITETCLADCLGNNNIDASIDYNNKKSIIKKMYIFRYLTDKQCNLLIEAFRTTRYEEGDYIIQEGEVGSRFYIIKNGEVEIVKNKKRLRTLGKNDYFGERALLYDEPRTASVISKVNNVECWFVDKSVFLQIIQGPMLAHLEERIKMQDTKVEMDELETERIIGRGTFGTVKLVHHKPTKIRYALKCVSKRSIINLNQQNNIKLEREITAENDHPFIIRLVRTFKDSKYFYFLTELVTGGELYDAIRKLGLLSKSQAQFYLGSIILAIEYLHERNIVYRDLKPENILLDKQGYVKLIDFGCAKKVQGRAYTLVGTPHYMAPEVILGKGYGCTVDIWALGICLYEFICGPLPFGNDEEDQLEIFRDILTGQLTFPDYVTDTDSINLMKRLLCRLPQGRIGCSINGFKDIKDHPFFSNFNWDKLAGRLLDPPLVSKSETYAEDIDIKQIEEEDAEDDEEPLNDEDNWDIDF
T2 sequence (Q8IBS5 whole entry): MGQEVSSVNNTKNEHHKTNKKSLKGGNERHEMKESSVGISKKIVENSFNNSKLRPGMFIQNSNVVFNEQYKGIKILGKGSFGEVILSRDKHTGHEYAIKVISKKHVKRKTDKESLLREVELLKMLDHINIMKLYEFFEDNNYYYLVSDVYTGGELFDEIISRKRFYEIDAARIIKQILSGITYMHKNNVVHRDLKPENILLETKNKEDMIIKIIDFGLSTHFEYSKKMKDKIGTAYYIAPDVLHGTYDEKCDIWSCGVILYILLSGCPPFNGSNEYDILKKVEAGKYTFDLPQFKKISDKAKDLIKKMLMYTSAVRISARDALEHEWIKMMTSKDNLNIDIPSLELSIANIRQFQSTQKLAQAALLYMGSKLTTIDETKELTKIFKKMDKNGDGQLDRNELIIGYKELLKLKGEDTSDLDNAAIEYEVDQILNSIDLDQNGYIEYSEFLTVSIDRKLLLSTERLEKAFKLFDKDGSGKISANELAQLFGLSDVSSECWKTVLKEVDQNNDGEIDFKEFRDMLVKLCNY
T5 sequence (A3FQ16 1-538): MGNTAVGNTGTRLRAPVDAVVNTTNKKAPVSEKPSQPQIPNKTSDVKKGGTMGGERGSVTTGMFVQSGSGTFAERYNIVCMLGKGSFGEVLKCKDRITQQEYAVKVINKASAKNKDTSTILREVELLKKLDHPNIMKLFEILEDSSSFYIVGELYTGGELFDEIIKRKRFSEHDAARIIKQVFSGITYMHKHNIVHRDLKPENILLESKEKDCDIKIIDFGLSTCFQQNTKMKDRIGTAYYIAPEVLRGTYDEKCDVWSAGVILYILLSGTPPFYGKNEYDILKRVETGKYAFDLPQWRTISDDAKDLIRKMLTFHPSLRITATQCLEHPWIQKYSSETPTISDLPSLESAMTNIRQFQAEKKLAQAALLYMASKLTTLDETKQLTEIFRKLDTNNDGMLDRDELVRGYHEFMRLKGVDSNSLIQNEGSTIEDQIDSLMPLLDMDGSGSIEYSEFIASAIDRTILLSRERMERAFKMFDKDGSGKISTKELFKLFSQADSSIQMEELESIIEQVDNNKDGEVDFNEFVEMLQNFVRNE
T1 sequence (P62344 whole entry): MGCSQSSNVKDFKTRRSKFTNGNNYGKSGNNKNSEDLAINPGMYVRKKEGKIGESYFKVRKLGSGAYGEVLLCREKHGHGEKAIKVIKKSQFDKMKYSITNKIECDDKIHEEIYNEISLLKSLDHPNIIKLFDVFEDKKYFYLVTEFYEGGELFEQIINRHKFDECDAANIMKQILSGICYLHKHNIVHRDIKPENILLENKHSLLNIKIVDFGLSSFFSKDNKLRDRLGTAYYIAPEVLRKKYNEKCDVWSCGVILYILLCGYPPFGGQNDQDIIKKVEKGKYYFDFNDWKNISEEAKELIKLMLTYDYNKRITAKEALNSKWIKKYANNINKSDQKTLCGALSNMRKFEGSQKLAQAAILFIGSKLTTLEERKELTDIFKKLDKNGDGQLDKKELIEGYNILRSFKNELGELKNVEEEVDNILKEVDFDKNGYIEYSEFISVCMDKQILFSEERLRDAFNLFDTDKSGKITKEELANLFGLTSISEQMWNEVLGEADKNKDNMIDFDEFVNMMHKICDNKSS

For `O=C(c1nccs1)N1CC[C@@H](Nc2nccc(-n3cc(C4CC4)nc3-c3ccccc3)n2)C1` [(R)-RY-1-165], the pIC50 [1] was 6.62, the pIC50 [2] was < 5.00 and the pIC50 [3] was 5.00. For the same compound, the pIC50 [4] was 5.77, the pEC50 [5] was 4.96 and the pEC50 [6] was 4.87. For the same compound, the pIC50 [7] was 7.30, the “IC50 for TgCDPK1 lower than for PfCDPK4” value ([7]; TgCDPK1 versus PfCDPK4, 90 min) was “over 30 fold” and the pIC50 [8] was < 4.52. For the same compound, the “TgCDPK1 G128M mutant enzyme less sensitive” value ([8]; G128M versus WT enzyme) was “at least 500 fold”, the pIC50 [9] was 6.77 and the pIC50 [10] was < 4.52. The “CpCDPK1 G152M mutant enzyme less sensitive” value ([10]; G152M versus WT enzyme) was “at least 175 ×”, the pEC50 [11] was 4.75 and the pEC50 ([12]; read-out: T. gondii EC50 (±SD) CONTROL, tachyzoites, parental control of CDPK1 G128M, mean ± SD, n = 3–5) was 6.07. The pEC50 ([12]; read-out: T. gondii EC50 (±SD) CONTROL, tachyzoites, parental control of PKG T761Q, mean ± SD, n = 3–5) was 6.59, the pEC50 ([12]; read-out: T. gondii EC50 (±SD) CONTROL, tachyzoites, parental control of the double mutant, mean ± SD, n = 3–5) was 6.27 and the pEC50 ([13]; Toxoplasma gondii, Fibroblast, read-out: T. gondii EC50 (±SD) PKGT761Q) was 6.41. For the same compound, the “change in relative EC50, T761Q parasites versus parental controls” value ([13]; in 2 experiments) was “no change”, the “increase in EC50 against T761Q parasites relative to parental controls” value ([13]; in 3 experiments) was 1.8–2.8 fold and the “EC50 for G128M parasites higher compared to the parental strain” value ([14]; TgCDPK1 G128M versus parental) was 1.7 fold. For the same compound, the pEC50 ([14]; Toxoplasma gondii, Fibroblast, read-out: T. gondii EC50 (±SD) CDPK1 G128M) was 5.82, the pEC50 [15] was 5.80 and the pEC50 [16] was 6.28. The “increase in EC50 against TgMAPKL-1 L162Q parasites versus parental strain” value [17] was “did not demonstrate a significant change in EC50” and the pEC50 ([17]; Toxoplasma gondii, 72 h, read-out: T. gondii EC50 (±SD) MAPKL1 L162Q) was 6.25.
